What is called fold induction is the ratio of treated to control signal. By CC50 is commonly meant the concentration giving 50% cytotoxicity. The low end stands for greater toxicity to the cells, the high end for lower toxicity to the cells. As usually defined, the IC50 is the midpoint of a concentration-inhibition curve.

The source of these data is article PMC9658513, “Discovery of Compounds That Selectively Repress the Amyloidogenic Processing of the Amyloid Precursor Protein: Design, Synthesis and Pharmacological Evaluation of Diphenylpyrazoles” (International Journal of Molecular Sciences, 2022).

Read-outs that look alike come from different tables or passages of the source.

The subject of one series is p62. The experiment in a line: Autophagic flux: p62 expression by Western blot. In kind it is cell-based, human. The settings on record: Homo sapiens, 24 h, 0.1 µM (100 nM), SY5Y-APP^wt cells, vs control. An excerpt: (§1) Previous work dedicated to compounds of family C [22] has underlined the effect of our compounds on autophagic flux and the lysosomal degradation pathways. More precisely, the role of the amino side chains and their number was highlighted. Therefore, we assessed whether the activity of compounds involved the modulation of lysosomal activities toward the accumulation of APP-CTFs and AICD. Thus, we studied the effect of a selection of compounds on the autophagic flux, more particularly, we evaluated the effect of compounds 24, 33, 34, 57, 65, 67, 70, and 71 on two markers associated with autophagy: p62 and LC3-I lipidation into LC3-II. To the previous selection of efficient compounds decreasing Aβ1–x production and increasing CTFα and AICD, we added compound 65 with no cytotoxicity at 100 µM. As a comparison, we also selected compound 57 with a hydroxymethyl substituent as a control. In addition to CQ, bafilomycin A, a well-known inhibitor of autophagic flux, was used as a control. Treatment with compounds 67 and 71 induced an increase in p62 expression by 2.5 and 4-fold, respectively, compared to the control condition (Figure 3). […] An increase in the two markers was also observed with compound 57, but to a smaller extent (1.7-fold for p62 and 2-fold for LC3-I/LC3-II).
(§2) The human neuroblastoma cell line SY5Y-APP^695WT was maintained in Dulbecco’s modified Eagle medium (DMEM, high glucose, pyruvate—GIBCO, Life Technologies, Carlsbad, CA, USA) supplemented with 10% fetal bovine serum, 2 mM L-glutamine, 1 mM non-essential amino acids and penicillin/streptomycin (GIBCO, Life Technologies, Carlsbad, CA, USA) at 37 °C in a 5% CO2 humidified incubator [36]. For compound treatment, a 10 mM stock solution was diluted in freshly supplemented DMEM medium to obtain the precise final concentration of the drug. Cells were plated at a density of 5 × 10^5 cells per well into 12-well plates and cultured with 1 mL supplemented DMEM cell medium for 24 h before compound exposure. The following day, the cell medium was replaced with fresh medium containing the compounds diluted at the indicated concentrations. Cells were treated for 24 h. At the end of the treatments, the cell medium was collected and kept at −80 °C until use, cells were rinsed once with PBS and extracted in 100 µL of Laemmli buffer (10 mM Tris, 20% glycerol, and 2% sodium dodecyl sulfate) using a cell-scraper. The cell lysate was further sonicated (30 pulses of 0.5 s, 60 Hz) for 5 min. Total protein concentration was determined using the Pierce BCA Protein Assay Kit (Thermo Scientific, Waltham, MA, USA) according to the manufacturer’s instructions. Samples were stored at −80 °C until analysis.
(§3) Cell protein lysates were prepared for Western blot analysis by diluting the sample with 1 volume of NuPAGE® lithium dodecyl sulfate (LDS) 2X sample buffer supplemented with 20% NuPAGE® sample reducing agents (Invitrogen). Samples were heated for 10 min at 100 °C. Ten µg of total proteins per well were loaded onto precast 4–12% Criterion XT Bis-Tris polyacrylamide gels (Bio-Rad) and electrophoresis was achieved after applying a tension of 150 V for 90 min using a Criterion electrophoresis cell with the NuPAGE® MOPS SDS running buffer (1X). Proteins were transferred to a nitrocellulose membrane of […] pore size (G&E Healthcare, Madison, WI, USA) using the Criterion blotting system and applying a tension of 100 V for 45 min. To resolve proteins of low molecular weights such as carboxy-terminal fragments of APP, 12% Criterion XT Bis-Tris polyacrylamide gels (Bio-Rad, Hercules, CA, USA) were used, and electrophoresis was performed for 70 min at 150 V in a NuPAGE® MES SDS running buffer (1X). Proteins were transferred to a nitrocellulose membrane of 0.2 µm pore size (G&E Healthcare, Madison, WI, USA) at 100 V for 40 min. Molecular weight calibration was achieved using molecular weight markers (Novex and Magic Marks, Life Technologies, Carlsbad, CA, USA). […]
(In general: In western blotting, separated proteins are transferred to a membrane and probed.)

In the next series the test system is LC3. Briefly: Autophagic flux: LC3-I lipidation into LC3-II by Western blot. The settings on record: Homo sapiens, 24 h, 0.1 µM (100 nM), SY5Y-APP^wt cells, vs control. The format is cell-based.
Text: as §1, §2, §3

The test system of the next series is p62/LC3. The experiment in a line: Ratio between p62 and LC3 expression levels. The settings on record: 0.1 µM (100 nM), 24 h, SY5Y-APP^wt cells. The format is cell-based, human. The text has this: Compounds from both series were selected to first determine the potential relationship between the repression of Aβ1–x production and the increased expression of LC3 and p62. […] We then also considered the ratio between the p62 and LC3 expression levels.
Figure 3 Effect of compounds 24, 33, 34, 57, 65, 67, 70, and 71 on the autophagic flux in SY5Y-APP^wt cells. […] Cell lysates were immunolabeled with the following antibodies: p62 (a), LC3 (b), and β-actin. Statistical significance was set at * p < 0.05, ** p < […], *[…], **** p < 0.0001, and ns as not significant.

Another series is described as follows: in vitro. The format is cell-based, human. The settings on record: human. How it is done:
(§4) Cytotoxicity was measured using 3-(4,5-dimethylthiazol-2-yl)-5-(3-carboxymethoxyphenyl)-2-(4-sulfophenyl)-2H-tetrazolium (MTS) tests. SY5Y-APP^695WT cells were plated in a 96-well plate at 3 × 10^4 cells per well and allowed to attach for 24 h. Cells were then incubated for 72 h with 100 µL of DMEM with 10% SVF containing (or not) the defined concentration of drugs. Cytotoxicity was determined by using the colorimetric MTS assay (Cell Titer 96® Aqueous One Solution Cell Proliferation Assay-MTS Promega, Madison, WI, USA) according to the manufacturer’s instructions. Absorbance was read at 490 nm.

In series [1] the test system is αCTF (APP carboxy-terminal fragment). The experiment in a line: αCTF level by Western blotting in SY5Y-APP^WT cells. In kind it is cell-based, human. The settings on record: concentration increasing αCTF 20-fold vs untreated control, SY5Y-APP^WT cells, read-out: αCTF (C20). As for the experimental part:
(§5) The final and selected intermediate compounds were evaluated for their ability to modulate APP processing in the SH-SY5Y human neuroblastoma cell line stably expressing the neuronal isoform of human wild-type APP^695 (SY5Y-APP^WT), a well-established model for the study of APP metabolism. APP carboxy-terminal fragments (αCTFs and AICD) levels were assessed by Western blotting (WB). The effect of the reference and test compounds on αCTFs and AICD is expressed as the intensity of corresponding WB bands. The concentration of compounds able to increase 20-times αCTFs and AICD (C20) when compared to the control condition was calculated. Selected compounds were also evaluated for their ability to modulate the secretion of soluble APP fragments (sAPPα and sAPPβ). Aβ1–x levels (Aβ1–40 and Aβ1–42) after treatment with the reference and tested compounds were measured in the cell media by ELISA (Table 1). […] Selected hit compounds were then further evaluated for their ability to decrease the level of N-truncated Aβ peptides (Aβx–38, Aβx–40, and Aβx–42).
as §2
as §3, with “USA). Protein transfer and quality were determined by a reversible Ponceau Red coloration (0.2% xylidine Ponceau Red and 3% trichloroacetic acid).” for “USA).”

For the next series, the system named is Aβ1–40 peptide secretion. The experiment in a line: Aβ1–40 secretion in cell medium by ELISA. The settings on record: SY5Y-APP^WT cells, 24 h treatment, mean ± SD of at least three experiments in triplicate, read-out: Aβ1–40 IC50. The format is cell-based, human. How it is done:
as §5, §2
(§6) Conditioned media of SY5Y-APP^695WT collected at the end of treatments were centrifuged at 1000× g for 5 min to eliminate cell debris.
(§7) Aβ1–40/Aβ1–42 peptides, Aβx–38/Aβx–40/Aβx–42, and sAPPα/sAPPβ concentrations in pg/mL were determined, respectively, using amyloid-beta 40 and 42 Human ELISA Kits (Invitrogen), the V-PLEX Plus Aβ Peptide Panel 1 (4G8) Kit (Meso Scale Diagnostics, MSD R©, Rockville, MD, USA), and the sAPPα/sAPPβ Multiplex Kit (Meso Scale Diagnostics, MSD R©, Rockville, MD, USA) according to the manufacturer’s instructions.
In general terms: In an ELISA, binding on a coated surface is turned into a signal by an enzyme label.

For the next series, the system named is Aβ1–42 peptide secretion. Briefly: Aβ1–42 secretion in cell medium by ELISA. The settings on record: SY5Y-APP^WT cells, 24 h treatment, mean ± SD of at least three experiments in triplicate. In kind it is cell-based, human. As for the experimental part:
as §5, §2, §6, §7

Series [2] deals with AICD (APP intracellular domain). The experiment in a line: AICD level by Western blotting in SY5Y-APP^WT cells. In kind it is cell-based, human. The settings on record: concentration increasing AICD 20-fold vs untreated control, read-out: AICD (C20). How it is done: as §5, §2
as §3, with “USA). Protein transfer and quality were determined by a reversible Ponceau Red coloration (0.2% xylidine Ponceau Red and 3% trichloroacetic acid).” for “USA).”

In the next series the test system is SY5Y-APP^695WT cells. Briefly: in vitro. The format is cell-based, human. As for the experimental part:
as §4

Take `CO/C1=C\C(C)=C\[C@@H](C)[C@@H](O)[C@@H](C)C/C(C)=C/C=C/[C@H](OC)[C@@H]([C@@H](C)[C@@H](O)[C@H](C)[C@@]2(O)C[C@@H](O)[C@H](C)[C@@H](C(C)C)O2)OC1=O` [Baf A1, bafilomycin A1, reference compound]: the figures for the fold induction at 0.1 µM with p62 and in the series with LC3 were 1.48 and 4.68, respectively. For the same molecule, in the series with p62/LC3, the p62/LC3 is 0.31.

Molecule `Cc1cn(-c2cccc(CN(C)CCCN(C)C)c2)nc1-c1ccc(CN(C)C)cc1` [Compound 63, [(4-{1-[3-({[3-(Dimethylamino)propyl](methyl)amino}methyl)phenyl]-4-methyl-1H-pyrazol-3-yl}phenyl)methyl]dimethylamine] yielded a CC50 at 72 h in the series “in vitro” of 13 µM. Besides, the EC (20-fold increase) was found to be 1.2 µM in [1] (Homo sapiens) and 1.5 µM in [2] (Homo sapiens). Moreover, the IC50 in the series on Aβ1–40 peptide secretion (Homo sapiens) was found to be 2 ± 0.2 µM; with Aβ1–42 peptide secretion (Homo sapiens), 2.7 ± 0.2 µM.

With `Cc1cn(-c2cccc(CN(C)C)c2)nc1-c1cccc(CN(C)C)c1` [Compound 64, 1-[3-[1-[3-(Dimethylaminomethyl)phenyl]-4-methyl-pyrazol-3-yl]phenyl]-N,N-dimethylmethanamine], the CC50 at 72 h in “in vitro” was greater than 100 µM. For the same molecule, the results for the EC (20-fold increase) in [1] (Homo sapiens) and in [2] (Homo sapiens) were 3.8 µM and 4.9 µM, respectively. In addition, the results for the IC50 in the series with Aβ1–40 peptide secretion (Homo sapiens) and in the series with Aβ1–42 peptide secretion (Homo sapiens) were 3.8 ± 0.2 µM and 4.1 ± 1.6 µM, respectively.

In the series “in vitro”, `Cc1cn(-c2cccc(CN(C)CCCN(C)C)c2)nc1-c1cccc(CN(C)C)c1` [Compound 66, N′-[[3-[3-[3-(Dimethylaminomethyl)phenyl]-4-methyl-pyrazol-1-yl]phenyl]methyl]-N,N,N’-trimethyl-propane-1,3-diamine] came in with a CC50 at 72 h of 47 µM. Also, the EC (20-fold increase) in series [1] (Homo sapiens) was found to be 2.2 µM; in series [2] (Homo sapiens) it was 2.4 µM. In addition, the IC50 stood at 2.2 ± 0.3 µM in the series on Aβ1–40 peptide secretion (Homo sapiens) and 2.5 ± 1 µM in the series on Aβ1–42 peptide secretion (Homo sapiens).

`Cc1cn(-c2cccc(CN3CCN(C)CC3)c2)nc1-c1ccc(CN(C)CCCN(C)C)cc1` [Compound 68, [3-(Dimethylamino)propyl](methyl){[4-(4-methyl-1-{3-[(4-methylpiperazin-1-yl)methyl]phenyl}-1H-pyrazol-3-yl)phenyl]methyl}amine] displayed a CC50 at 72 h in the series “in vitro” of 6 µM. For the same molecule, the EC (20-fold increase) in series [1] (Homo sapiens) and in series [2] (Homo sapiens) was 1 µM throughout. Moreover, the IC50 with Aβ1–40 peptide secretion (Homo sapiens) was found to be 1.2 ± 0.1 µM; in the series on Aβ1–42 peptide secretion (Homo sapiens), 1.6 ± 0.1 µM.

In the series “in vitro”, `Cc1cn(-c2cccc(CN(C)CCCN(C)C)c2)nc1-c1cccc(CN(C)CCCN(C)C)c1` [Compound 72, N′-[[3-[1-[3-[[3-(Dimethylamino)propyl-methyl-amino]methyl]phenyl]-4-methyl-pyrazol-3-yl]phenyl]methyl]-N,N,N′-trimethyl-propane-1,3-diamine] came in with a CC50 at 72 h of 26 µM. The EC (20-fold increase) in [1] (Homo sapiens) was 0.6 µM; in [2] (Homo sapiens), 0.8 µM. The IC50 in the series with Aβ1–40 peptide secretion (Homo sapiens) was determined as 2.6 ± 0.2 µM; in the series on Aβ1–42 peptide secretion (Homo sapiens), 3.3 ± 0.1 µM.

In the series with SY5Y-APP^695WT cells, “N′-[[4-[4-(Dimethylaminomethyl)-3-[4-[3-(dimethylamino)propyl]phenyl] Pyrazol-1-yl]phenyl]methyl]-N,N,N′-trimethyl-propane-1,3-diamine [Compound 32]” came in with a CC50 greater than 100 µM. The figures for the EC (20-fold increase) in series [1] and in series [2] were 1.1 µM and 1.8 µM, respectively. Also, the IC50 was 4.2 ± 0.1 µM with Aβ1–40 peptide secretion and 6.1 ± 0.3 µM in the series on Aβ1–42 peptide secretion.
